Measurements from ChEMBL document CHEMBL3792297, “Studies on phenothiazines: New microtubule-interacting compounds with phenothiazine A-ring as potent antineoplastic agents” (Bioorg Med Chem, 2016).

Columns and labels:
[1] = Growth inhibition of human HCC2998 cells at 10 uM after 48 hrs by SRB assay relative to control; format: functional; settings: HCC 2998, 48 h, read-out: GI
KM12 = experiment: Growth inhibition of human KM12 cells at 10 uM after 48 hrs by SRB assay relative to control; format: functional; settings: KM12, 48 h, read-out: GI
[2] = Growth inhibition of human SF539 cells at 10 uM after 48 hrs by SRB assay relative to control; format: functional; settings: SF-539, 48 h, read-out: GI
ACHN = experiment: Growth inhibition of human ACHN cells at 10 uM after 48 hrs by SRB assay relative to control; format: functional; settings: read-out: GI
[3] = Growth inhibition of human UACC257 cells at 10 uM after 48 hrs by SRB assay relative to control; format: functional; settings: UACC-257, 48 h, read-out: GI
[4] = Growth inhibition of human HL-60(TB) cells at 10 uM after 48 hrs by SRB assay relative to control; format: functional; settings: HL-60, 48 h, read-out: GI
[5] = Growth inhibition of human SF268 cells at 10 uM after 48 hrs by SRB assay relative to control; format: functional; settings: SF-268, 48 h, read-out: GI
[6] = Growth inhibition of human DU145 cells at 10 uM after 48 hrs by SRB assay relative to control; format: functional; settings: DU-145, 48 h, read-out: GI
NCI-H522 = experiment: Growth inhibition of human NCI-H522 cells at 10 uM after 48 hrs by SRB assay relative to control; format: functional; settings: NCI-H522, 48 h, read-out: GI
[7] = Growth inhibition of human BT549 cells at 10 uM after 48 hrs by SRB assay relative to control; format: functional; settings: BT-549, 48 h, read-out: GI
MDA-MB-231 = experiment: Growth inhibition of human MDA-MB-231 cells at 10 uM after 48 hrs by SRB assay relative to control; format: functional; settings: MDA-MB-231, 48 h, read-out: GI
NCI-H226 = experiment: Growth inhibition of human NCI-H226 cells at 10 uM after 48 hrs by SRB assay relative to control; format: functional; settings: NCI-H226, 48 h, read-out: GI
[8] = Growth inhibition of human HCT15 cells at 10 uM after 48 hrs by SRB assay relative to control; format: functional; settings: HCT-15, 48 h, read-out: GI
[9] = Growth inhibition of human IGROV1 cells at 10 uM after 48 hrs by SRB assay relative to control; format: functional; settings: IGROV-1, 48 h, read-out: GI
MDA-MB-468 = experiment: Growth inhibition of human MDA-MB-468 cells at 10 uM after 48 hrs by SRB assay relative to control; format: functional; settings: MDA-MB-468, 48 h, read-out: GI
[10] = Growth inhibition of human RPMI8226 cells at 10 uM after 48 hrs by SRB assay relative to control; format: functional; settings: RPMI-8226, 48 h, read-out: GI
A549 = experiment: Growth inhibition of human A549 cells at 10 uM after 48 hrs by SRB assay relative to control; format: functional; settings: A549, 48 h, read-out: GI
[11] = Growth inhibition of human HCT116 cells at 10 uM after 48 hrs by SRB assay relative to control; format: functional; settings: HCT-116, 48 h, read-out: GI
SK-MEL-5 = experiment: Growth inhibition of human SK-MEL-5 cells at 10 uM after 48 hrs by SRB assay relative to control; format: functional; settings: SK-MEL-5, 48 h, read-out: GI
Ovis aries = species on record: Ovis aries; experiment: Inhibition of sheep brain tubulin polymerization at 100 uM by DAPI staining-based fluorimetric method
SK-MEL-2 = experiment: Growth inhibition of human SK-MEL-2 cells at 10 uM after 48 hrs by SRB assay relative to control; format: functional; settings: SK-MEL-2, 48 h, read-out: GI
SR = experiment: Growth inhibition of human SR cells at 10 uM after 48 hrs by SRB assay relative to control; format: functional; settings: read-out: GI
786-0 = experiment: Growth inhibition of human 786-0 cells at 10 uM after 48 hrs by SRB assay relative to control; format: functional; settings: 786-0, 48 h, read-out: GI
[12] = Growth inhibition of human UO31 cells at 10 uM after 48 hrs by SRB assay relative to control; format: functional; settings: UO-31, 48 h, read-out: GI
[13] = Growth inhibition of human SF295 cells at 10 uM after 48 hrs by SRB assay relative to control; format: functional; settings: SF-295, 48 h, read-out: GI
SK-MEL-28 = experiment: Growth inhibition of human SK-MEL-28 cells at 10 uM after 48 hrs by SRB assay relative to control; format: functional; settings: SK-MEL-28, 48 h, read-out: GI
HT-29 = experiment: Growth inhibition of human HT-29 cells at 10 uM after 48 hrs by SRB assay relative to control; format: functional; settings: HT-29, 48 h, read-out: GI
NCI-H23 = experiment: Growth inhibition of human NCI-H23 cells at 10 uM after 48 hrs by SRB assay relative to control; format: functional; settings: NCI-H23, 48 h, read-out: GI
T47D = experiment: Growth inhibition of human T47D cells at 10 uM after 48 hrs by SRB assay relative to control; format: functional; settings: read-out: GI
[14] = Growth inhibition of human SW620 cells at 10 uM after 48 hrs by SRB assay relative to control; format: functional; settings: SW-620, 48 h, read-out: GI
[15] = Growth inhibition of human Hs 578T cells at 10 uM after 48 hrs by SRB assay relative to control; format: functional; settings: read-out: GI
[16] = Growth inhibition of human SNB75 cells at 10 uM after 48 hrs by SRB assay relative to control; format: functional; settings: SNB-75, 48 h, read-out: GI
K562 = experiment: Growth inhibition of human K562 cells at 10 uM after 48 hrs by SRB assay relative to control; format: functional; settings: K562, 48 h, read-out: GI
[17] = Growth inhibition of human NCI-ADR-RES cells at 10 uM after 48 hrs by SRB assay relative to control; format: functional; settings: read-out: GI
[18] = Growth inhibition of human HOP92 cells at 10 uM after 48 hrs by SRB assay relative to control; format: functional; settings: HOP-92, 48 h, read-out: GI
[19] = Growth inhibition of human OVCAR3 cells at 10 uM after 48 hrs by SRB assay relative to control; format: functional; settings: OVCAR-3, 48 h, read-out: GI
A498 = experiment: Growth inhibition of human A498 cells at 10 uM after 48 hrs by SRB assay relative to control; format: functional; settings: A498, 48 h, read-out: GI
MDA-MB-435 = experiment: Growth inhibition of human MDA-MB-435 cells at 10 uM after 48 hrs by SRB assay relative to control; format: functional; settings: MDA-MB-435, 48 h, read-out: GI
NCI-H322M = experiment: Growth inhibition of human NCI-H322M cells at 10 uM after 48 hrs by SRB assay relative to control; format: functional; settings: read-out: GI

| Compound | inhibition of growth at 10 µM [1] [%] | inhibition of growth at 10 µM (KM12) [%] | inhibition of growth at 10 µM [2] [%] | inhibition of growth at 10 µM (ACHN) [%] | inhibition of growth at 10 µM [3] [%] | inhibition of growth at 10 µM [4] [%] | inhibition of growth at 10 µM [5] [%] | inhibition of growth at 10 µM [6] [%] | inhibition of growth at 10 µM (NCI-H522) [%] | inhibition of growth at 10 µM [7] [%] | inhibition of growth at 10 µM (NCI-H226) [%] | inhibition of growth at 10 µM [8] [%] | inhibition of growth at 10 µM [9] [%] | inhibition of growth at 10 µM (MDA-MB-468) [%] | inhibition of growth at 10 µM [10] [%] | inhibition of growth at 10 µM (A549) [%] | inhibition of growth at 10 µM [11] [%] | inhibition of growth at 10 µM (SK-MEL-5) [%] | inhibition of growth at 10 µM (SK-MEL-2) [%] | inhibition of growth at 10 µM (SR) [%] | further results |
| --- | --- | --- | --- | --- | --- | --- | --- | --- | --- | --- | --- | --- | --- | --- | --- | --- | --- | --- | --- | --- | --- |
| COc1ccc(C(=O)N2c3ccccc3Sc3ccccc32)cc1F | 82 | 81 | 91 | 50 | 50 | 89 | 58 | 95 | 100 | 83 | 30 | 76 | 70 | 100 | 44 | 83 | 85 | 93 | 100 | 75 | inhibition of growth at 10 µM (MDA-MB-231): 69%; inhibition (Ovis aries): 99%; inhibition of growth at 10 µM (786-0): 64%; inhibition of growth at 10 µM [12]: 50%; inhibition of growth at 10 µM [13]: 89%; inhibition of growth at 10 µM (SK-MEL-28): 57%; inhibition of growth at 10 µM (HT-29): 100%; inhibition of growth at 10 µM (NCI-H23): 86%; inhibition of growth at 10 µM (T47D): 49%; inhibition of growth at 10 µM [14]: 80%; inhibition of growth at 10 µM [15]: 100%; inhibition of growth at 10 µM [16]: 81%; inhibition of growth at 10 µM (K562): 82%; inhibition of growth at 10 µM [17]: 100%; inhibition of growth at 10 µM [18]: 45%; inhibition of growth at 10 µM [19]: 100% |
| O/N=C(/c1ccc2c(c1)Sc1ccccc1N2)c1c[nH]c2ccccc12 | 5 | 76 | 29 | 17 | 18 | 87 | 44 | 41 | 100 | 63 | 23 | 58 | 44 | 63 | 53 | 48 | 64 | 40 | 57 | 91 | inhibition (Ovis aries): 15%; inhibition of growth at 10 µM (A498): 53%; inhibition of growth at 10 µM (786-0): 38%; inhibition of growth at 10 µM [12]: 41%; inhibition of growth at 10 µM [13]: 55%; inhibition of growth at 10 µM (SK-MEL-28): 31%; inhibition of growth at 10 µM (HT-29): 84%; inhibition of growth at 10 µM (MDA-MB-435): 100%; inhibition of growth at 10 µM (NCI-H23): 24%; inhibition of growth at 10 µM [14]: 74%; inhibition of growth at 10 µM [15]: 40%; inhibition of growth at 10 µM [16]: 47%; inhibition of growth at 10 µM (K562): 87%; inhibition of growth at 10 µM [17]: 80%; inhibition of growth at 10 µM (NCI-H322M): 26%; inhibition of growth at 10 µM [18]: 51%; inhibition of growth at 10 µM [19]: 96% |
| COc1ccc(C(=O)c2ccc3c(c2)Sc2cc(C(=O)c4ccc(OC)c(F)c4)ccc2N3C)cc1F | 0 | 0 | 6 | 0 | 11 | 0 | 0 | 0 | 20 | 34 | 0 | 0 | 0 | 13 | 0 | 15 | 2 | 4 | 4 | 4 | inhibition of growth at 10 µM (A498): 5%; inhibition of growth at 10 µM (786-0): 23%; inhibition of growth at 10 µM [12]: 1%; inhibition of growth at 10 µM [13]: 0%; inhibition of growth at 10 µM (SK-MEL-28): 0%; inhibition of growth at 10 µM (HT-29): 5%; inhibition of growth at 10 µM (MDA-MB-435): 0%; inhibition of growth at 10 µM (NCI-H23): 4%; inhibition of growth at 10 µM [14]: 0%; inhibition of growth at 10 µM [15]: 17%; inhibition of growth at 10 µM [16]: 2%; inhibition of growth at 10 µM (K562): 6%; inhibition of growth at 10 µM [17]: 0%; inhibition of growth at 10 µM (NCI-H322M): 0%; inhibition of growth at 10 µM [18]: 1%; inhibition of growth at 10 µM [19]: 16% |
| COc1ccc(C(=O)c2ccc3c(c2)Sc2ccccc2N3C)cc1F | 5 | 30 | 19 | 0 | 8 | 0 | 2 | 0 | 22 | 58 | 15 | 36 | 7 | 55 | 5 | 44 | 17 | 13 | 17 | 32 | inhibition of growth at 10 µM (A498): 45%; inhibition of growth at 10 µM (786-0): 16%; inhibition of growth at 10 µM [12]: 2%; inhibition of growth at 10 µM [13]: 16%; inhibition of growth at 10 µM (SK-MEL-28): 13%; inhibition of growth at 10 µM (HT-29): 30%; inhibition of growth at 10 µM (MDA-MB-435): 87%; inhibition of growth at 10 µM (NCI-H23): 13%; inhibition of growth at 10 µM [14]: 27%; inhibition of growth at 10 µM [15]: 7%; inhibition of growth at 10 µM [16]: 1%; inhibition of growth at 10 µM (K562): 61%; inhibition of growth at 10 µM [17]: 32%; inhibition of growth at 10 µM (NCI-H322M): 5%; inhibition of growth at 10 µM [18]: 17%; inhibition of growth at 10 µM [19]: 40% |
